In patent publication US20250339443A1, “METHOD FOR TREATING OR PREVENTING CALCIUM RELEASE-ACTIVATED CALCIUM CHANNEL OR DISCOIDIN DOMAIN RECEPTOR 2 RELATED DISORDERS OR CONDITIONS” (LumiSTAR Biotechnology, Inc., priority 2023, published 2025):

Legend:
[1] = tested on: BLM-induced pulmonary fibrosis; experiment: Bleomycin-induced lung fibrosis mouse model; assay type: in vivo; details: 14 days, Nintedanib 60 mg/kg/day, WRG-28 5 mg/kg/day, Av 5 mg/kg/day
Excerpt: A Bleomycin (BLM)-induced lung fibrosis mouse model was used, and the timelines of operation and drug delivery are depicted in FIG. 11A. […] The hydroxyproline content, serving as a marker of collagen deposition, was extracted from the right lobe and analyzed; the results are shown in FIG. 11C. FIG. 11D depicts histological analysis derived from the left lobe, quantifying the fibrotic area through staining with Masson's Trichrome and Picrosirius red, respectively.
8-to-10-week-old male WT (C57BL/6) mice received intratracheal instillation of bleomycin (bleocin; Nippon Kayaku) at the dose of 3 mg/kg diluted in PBS or PBS only (sham). To study fibrosis, lung samples were collected on day 21 for further analysis.
Lung function was assessed using the flexi Vent system (Scireq, Montreal, QC, Canada). Mice were tracheostomized and ventilated at a rate of 150 breaths/min, tidal volume of 10 ml/kg, and a positive end-expiratory pressure (PEEP) of 2-3 cmH2O. A deep inflation perturbation was used to estimate the inspiratory capacity (IC). Pressure-Volume loops were generated by constant increasing pressure, followed by regular decreasing pressure. Other lung function parameters like resistance, compliance, and elastance were measured by using SnapShot-150.
Levels of hydroxyproline in lung tissues were measured using the Hydroxyproline Colorimetric Assay kit (BioVision, Milpitas, CA, USA). Briefly, 10 mg of frozen right middle lobes homogenized in 100 μL of hydrochloric acid (HCl, 12 N), and hydrolyzed at 120° C. for 3 h. Then, 10 μL of individual samples were used to quantify the absorbance at 560 nm. Hydroxyproline content was presented in μg per lobe.
Mouse left lungs were fixed overnight in 4% paraformaldehyde (PFA), embedded in paraffin, and sectioned in 5 μm thickness for picrosirius red (Abcam, Cambridge, UK) and Masson's trichrome staining (Sigma Aldrich, MO, USA). Measurement of fibrotic area was quantified using ImageJ software (NIH, http://rsbweb.nih.gov/ij/).
The efficacy of WRG-28 and Av in treating pulmonary fibrosis was examined in vivo using a BLM-induced pulmonary fibrosis mouse model for evaluation. 50 μL of Bleomycin (BLM, 3 mg/kg) or PBS were introduced by intratracheal instillation on day 0 to induce fibrosis or serve as the control group, respectively. This was followed by the administration of various compounds for 14 days (Nintedanib: 60 mg/kg/day, WRG-28:5 mg/kg/day, Av: 5 mg/kg/day). Lung function evaluation was conducted on day 21 (FIG. 11A). Nintedanib, an FDA-approved drug for idiopathic pulmonary fibrosis (IPF) treatment, was used as the positive control. The results of the lung function evaluation are depicted in FIG. 11B. […] The degree of these changes can be reversed through treatment with Nintedanib, WRG-28 or Av. […] Histological analysis was conducted through staining techniques to quantify the fibrotic area.

CRAC channel [2] = target: T1, CRAC channel (Homo sapiens, UniProt Q96D31); experiment: SOCE in T cells; assay type: cell-based; parameters: endogenous in cells; host or cells: HEK293T; details: 10 μM
T1 sequence (Q96D31 whole entry): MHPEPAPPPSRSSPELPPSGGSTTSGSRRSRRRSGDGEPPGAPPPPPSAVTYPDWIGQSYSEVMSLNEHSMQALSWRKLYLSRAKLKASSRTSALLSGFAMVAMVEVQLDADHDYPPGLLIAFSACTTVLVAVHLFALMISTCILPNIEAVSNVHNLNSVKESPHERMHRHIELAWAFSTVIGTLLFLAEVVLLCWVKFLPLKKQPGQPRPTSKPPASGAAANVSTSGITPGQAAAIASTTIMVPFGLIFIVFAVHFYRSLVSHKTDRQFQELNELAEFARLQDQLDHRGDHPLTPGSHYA
Method: (§1) The effects of BTP2, WRG-28, Av, and CM-4620 on SOCE were evaluated in T cells (FIG. 4A) and macrophages (FIG. 4E). Cells were cultured on glass-bottom 96-well plates and pretreated with various compounds (10 μM) while being loaded with Fura 2-AM. Subsequently, the cytosolic calcium signal waves were recorded, and the second peak of each wave and rate of entry were assessed. Each bar represents the mean value derived from, 43 to 111 cells for T cells (FIG. 4A), and 52 to 91 cells for macrophages (FIG. 4E). Cytokine induction in T cells and macrophages was conducted as described in the methods section. The levels of cytokines, including IL-2, TNF-α, and IL-6 in the culture medium were assessed using ELISA kits for T cells (FIG. 4B, FIG. 4C, and FIG. 4D) and macrophages (FIG. 4F, FIG. 4G, and FIG. 4H), respectively. Each bar represents the mean±SEM. In all the graphs, *, **, and *** denote p-values of <0.05, 0.01, and 0.001, respectively. […]
(§2) Cells cultured on a glass-bottom 96 well plate for 48 hours were treated with different compounds (10 μM) and Fura 2-AM (1 μM) simultaneously in a solution containing 145 mM NaCl, 2.8 mM KCl, 2 mM CaCl2, 2 mM MgCl2, 10 mM D-glucose, 10 mM HEPES, pH 7.4 for 40 minutes in the dark. […] All the images were analyzed by using IGOR Pro software. […]

CRAC channel [3] = target: T1, CRAC channel; experiment: SOCE in macrophages; assay type: cell-based; parameters: endogenous in cells; host or cells: HEK293T; details: 10 μM
Method: as §1, §2

SOCE in T cells (CRAC channel [2]): higher efficacy compared to Av | SOCE in macrophages (CRAC channel [3]): higher efficacy compared to Av
Structure (SMILES): CCNS(=O)(=O)c1ccc(COc2ccc3nc4ccc(=O)cc-4oc3c2)cc1 [WRG-28]
BLM-induced changes in lung function (capacity, compliance, resistance, elastance) ([1]; day 21): reversed | fibrotic area (Masson's trichrome and Picrosirius Red staining) ([1]; left lobe): effectively reduces | hydroxyproline content (degree of fibrosis) ([1]; right lobe): inhibits the progression of fibrosis
